Reference: US10165777B2, “Substituted pyrazolylpyrazole derivative and use of same as herbicide” (KYOYU AGRI CO., LTD., priority 2015, dated 2019)

Experiments:
Format in all cases: in vivo
Digitaria ciliaris [1] = experiment: Weed foliar treatment test (Test 3, 1.0 to 2.0 leaf stage); conditions: foliar spray at 1.0 to 2.0 leaf stage of Digitaria ciliaris, 3 weeks
Protocol: (§1) Soil was filled into a 1/6000 are pot followed by seeding with Digitaria ciliaris, Chenopodium album and Amaranthus retroflexus, covering with soil, and cultivating in a glass greenhouse at an average atmospheric temperature of 25° C. Wettable powders of Target Compound (I) shown in Table 1 prepared in compliance with the preparation examples were diluted with water to the prescribed amount of chemical and uniformly sprayed onto the weeds using 150 liters of sprayed water per 10 are when Digitaria ciliaris had grown to the 1.0 to 2.0 leaf stage. After treating for 3 weeks in a glass greenhouse at an average atmospheric temperature of 25° C., the herbicidal efficacy thereof was investigated. Evaluation of herbicidal efficacy was carried out in the same manner as the above-mentioned Test Example 1.

Chenopodium album [2] = experiment: as above; conditions: foliar spray at 1.0 to 2.0 leaf stage of Digitaria ciliaris, 3 weeks
Protocol: as §1

Amaranthus retroflexus [3] = experiment: as above; conditions: foliar spray at 1.0 to 2.0 leaf stage of Digitaria ciliaris, 3 weeks
Protocol: as §1

Oryza sativa = experiment: Paddy herbicidal activity test, phytotoxicity to transplanted rice; conditions: rice transplanted in 2.0 leaf stage, 30 days
Protocol: (§2) 1. Paddy Herbicidal Activity Test Rice paddy soil was filled into a 1/10000 are pot followed by the addition of suitable amounts of water and chemical fertilizer, kneading, seeding with Echinochloa crus-galli, Monochoria vaginalis and Scirpus juncoides and maintaining in an irrigated state at a water depth of 3 cm. Wettable powders of Target Compound (I) shown in Table 1 prepared in compliance with the preparation examples were diluted with a suitable amount of water, rice plants in the 2.0 leaf stage were transplanted during 3.5 leaf stage of Echinochloa crus-galli, and treated by dropping in chemical in the prescribed amount per 10 are using a pipette. After treating for 30 days in a glass greenhouse at an average atmospheric temperature of 30° C., the herbicidal efficacy thereof was investigated. Evaluation of herbicidal efficacy was carried out by comparing growth inhibition rate (%) with an untreated group, while evaluation of phytotoxicity was carried out by comparing growth inhibition rate (%) with the state of a complete eradication group, and were evaluated at 11 levels indicated below.

Digitaria ciliaris [4] = experiment: Farming soil treatment test; conditions: soil surface spray prior to weed growth, 30 days
Protocol: (§3) Field soil was filled into a 1/6000 are pot followed by seeding with Digitaria ciliaris, Chenopodium album and Amaranthus retroflexus and covering with soil. Wettable powders of compounds of formula (I) shown in Table 1 prepared in compliance with the preparation examples were diluted with water to the prescribed amount of chemical and uniformly sprayed onto each soil surface layer using 100 liters of sprayed water per 10 are prior to weed growth following seeding. After treating for 30 days in a glass greenhouse at an average atmospheric temperature of 30° C., the herbicidal efficacy thereof was investigated. Evaluation of herbicidal efficacy was carried out in the same manner as the above-mentioned Test Example 1.

Chenopodium album [5] = experiment: Farming soil treatment test; conditions: soil surface spray prior to weed growth, 30 days
Protocol: as §3

Amaranthus retroflexus [6] = experiment: Farming soil treatment test; conditions: soil surface spray prior to weed growth, 30 days
Protocol: as §3

Echinochloa crus-galli = experiment: Paddy herbicidal activity test; conditions: irrigated pot, treated at 3.5 leaf stage of Echinochloa crus-galli, 30 days
Protocol: as §2

Scirpus juncoides = experiment: Paddy herbicidal activity test; conditions: irrigated pot, 30 days
Protocol: as §2

Monochoria vaginalis = experiment: Paddy herbicidal activity test; conditions: irrigated pot, 30 days
Protocol: as §2

Digitaria ciliaris [7] = experiment: Weed foliar treatment test (Test 4, 4.0 to 5.0 leaf stage); conditions: 10 g a.i./10 a; foliar spray at 4.0 to 5.0 leaf stage of Digitaria ciliaris (plant height 10 cm to 15 cm); 20 days
Protocol: (§4) Field soil was filled into a 1/4500 are pot followed by seeding with Digitaria ciliaris and Galinsoga parviflora, covering with soil and cultivating in a glass greenhouse at an average atmospheric temperature of 25° C.
(§5) Wettable powders of Target Compound (I) shown in Table 1 prepared in compliance with the preparation examples were diluted with water to the prescribed amount of chemical and uniformly sprayed onto the weeds using 100 liters of sprayed water per 10 are when Digitaria ciliaris had grown to the 4.0 to 5.0 leaf stage (plant height: 10 cm to 15 cm).
(§6) After treating for 20 days in a glass greenhouse at an average atmospheric temperature of 25° C., the herbicidal efficacy thereof was investigated.
(§7) Evaluation of herbicidal efficacy was carried out in the same manner as the above-mentioned Test Example 1.

Galinsoga parviflora = experiment: as above; conditions: 10 g a.i./10 a; foliar spray at 4.0 to 5.0 leaf stage of Digitaria ciliaris; 20 days
Protocol: as §4, §5, §6, §7

In the case of N#Cc1cnn(-c2nn3c(c2Cl)CCCC3)c1N=CC1CCCCC1 [Compound 1, 1-(3-chloro-4,5,6,7-tetrahydropyrazolo[1,5-a]pyridin-2-yl)-5-(cyclohexylmethyleneamino)pyrazole-4-carbonitrile], the “herbicidal efficacy, Digitaria ciliaris” value (Digitaria ciliaris [1]; 5 g a.i./10 a) is reported as 10 (100%), the “herbicidal efficacy, Digitaria ciliaris” value (Digitaria ciliaris [1]; 10 g a.i./10 a) is reported as 10 (100%) and the “herbicidal efficacy, Chenopodium album” value (Chenopodium album [2]; 5 g a.i./10 a) is reported as 10 (100%). For the same molecule, the “herbicidal efficacy, Chenopodium album” value (Chenopodium album [2]; 10 g a.i./10 a) was 10 (100%), the “herbicidal efficacy, Amaranthus retroflexus” value (Amaranthus retroflexus [3]; 5 g a.i./10 a) was 10 (100%) and the “herbicidal efficacy, Amaranthus retroflexus” value (Amaranthus retroflexus [3]; 10 g a.i./10 a) was 10 (100%). For the same molecule, the “phytotoxicity, Oryza sativa” value (Oryza sativa; 1 g a.i./10 a) was 0 (0% to less than 10% (growth inhibition rate)), the “phytotoxicity, Oryza sativa” value (Oryza sativa; 5 g a.i./10 a) was 0 (0% to less than 10% (growth inhibition rate)) and the “herbicidal efficacy, Digitaria ciliaris” value (Digitaria ciliaris [4]; 5 g a.i./10 a) was 9 (90% to less than 100%). For the same molecule, the “herbicidal efficacy, Digitaria ciliaris” value (Digitaria ciliaris [4]; 10 g a.i./10 a) was 9 (90% to less than 100%), the “herbicidal efficacy, Chenopodium album” value (Chenopodium album [5]; 5 g a.i./10 a) was 9 (90% to less than 100%) and the “herbicidal efficacy, Chenopodium album” value (Chenopodium album [5]; 10 g a.i./10 a) was 10 (100%). For the same molecule, the “herbicidal efficacy, Amaranthus retroflexus” value (Amaranthus retroflexus [6]; 5 g a.i./10 a) was 10 (100%), the “herbicidal efficacy, Amaranthus retroflexus” value (Amaranthus retroflexus [6]; 10 g a.i./10 a) was 10 (100%) and the “herbicidal efficacy, Echinochloa crus-galli” value (Echinochloa crus-galli; 1 g a.i./10 a) was 10 (100%). For the same molecule, the “herbicidal efficacy, Echinochloa crus-galli” value (Echinochloa crus-galli; 5 g a.i./10 a) was 10 (100%), the “herbicidal efficacy, Scirpus juncoides” value (Scirpus juncoides; 1 g a.i./10 a) was 9 (90% to less than 100%) and the “herbicidal efficacy, Scirpus juncoides” value (Scirpus juncoides; 5 g a.i./10 a) was 10 (100%). For the same molecule, the “herbicidal efficacy, Monochoria vaginalis” value (Monochoria vaginalis; 1 g a.i./10 a) was 9 (90% to less than 100%) and the “herbicidal efficacy, Monochoria vaginalis” value (Monochoria vaginalis; 5 g a.i./10 a) was 10 (100%).

N#Cc1cnn(-c2nn3c(c2Cl)CCCC3)c1N=Cc1ccccc1F [Compound 13] was tested, and the “herbicidal efficacy, Digitaria ciliaris” value (Digitaria ciliaris [7]) was 10 (100%) and the “herbicidal efficacy, Galinsoga parviflora” value (Galinsoga parviflora) was 10 (100%).

With N#Cc1cnn(-c2nn3c(c2Cl)CCCC3)c1N=Cc1ccsc1 [Compound 31] the “herbicidal efficacy, Digitaria ciliaris” value (Digitaria ciliaris [7]) was 10 (100%) and the “herbicidal efficacy, Galinsoga parviflora” value (Galinsoga parviflora) was 10 (100%).

With N#Cc1cnn(-c2nn3c(c2Cl)CCCC3)c1N=Cc1ccoc1 [Compound 32] the “herbicidal efficacy, Digitaria ciliaris” value (Digitaria ciliaris [7]) was 10 (100%) and the “herbicidal efficacy, Galinsoga parviflora” value (Galinsoga parviflora) was 10 (100%).

For N#Cc1cnn(-c2nn3c(c2Cl)CCCC3)c1N=Cc1cccnc1 [Compound 22], the “herbicidal efficacy, Digitaria ciliaris” value (Digitaria ciliaris [7]) was 9 (90% to less than 100%), the “herbicidal efficacy, Galinsoga parviflora” value (Galinsoga parviflora) was 10 (100%) and the “phytotoxicity, Oryza sativa” value (Oryza sativa; 1 g a.i./10 a) was 0 (0% to less than 10% (growth inhibition rate)). For the same molecule, the “phytotoxicity, Oryza sativa” value (Oryza sativa; 5 g a.i./10 a) was 1 (10% to less than 20%), the “herbicidal efficacy, Digitaria ciliaris” value (Digitaria ciliaris [4]; 5 g a.i./10 a) was 9 (90% to less than 100%) and the “herbicidal efficacy, Digitaria ciliaris” value (Digitaria ciliaris [4]; 10 g a.i./10 a) was 9 (90% to less than 100%). For the same molecule, the “herbicidal efficacy, Chenopodium album” value (Chenopodium album [5]; 5 g a.i./10 a) was 9 (90% to less than 100%), the “herbicidal efficacy, Chenopodium album” value (Chenopodium album [5]; 10 g a.i./10 a) was 10 (100%) and the “herbicidal efficacy, Amaranthus retroflexus” value (Amaranthus retroflexus [6]; 5 g a.i./10 a) was 10 (100%). The “herbicidal efficacy, Amaranthus retroflexus” value (Amaranthus retroflexus [6]; 10 g a.i./10 a) was 10 (100%), the “herbicidal efficacy, Echinochloa crus-galli” value (Echinochloa crus-galli; 1 g a.i./10 a) was 10 (100%) and the “herbicidal efficacy, Echinochloa crus-galli” value (Echinochloa crus-galli; 5 g a.i./10 a) was 10 (100%). For the same molecule, the “herbicidal efficacy, Scirpus juncoides” value (Scirpus juncoides; 1 g a.i./10 a) was 10 (100%), the “herbicidal efficacy, Scirpus juncoides” value (Scirpus juncoides; 5 g a.i./10 a) was 10 (100%) and the “herbicidal efficacy, Monochoria vaginalis” value (Monochoria vaginalis; 1 g a.i./10 a) was 10 (100%). For the same molecule, the “herbicidal efficacy, Monochoria vaginalis” value (Monochoria vaginalis; 5 g a.i./10 a) was 10 (100%).

For CC(C)OC=Nc1c(C#N)cnn1-c1nn2c(c1Cl)CCCC2 [Compound 36], the “herbicidal efficacy, Digitaria ciliaris” value (Digitaria ciliaris [7]) was 10 (100%) and the “herbicidal efficacy, Galinsoga parviflora” value (Galinsoga parviflora) was 10 (100%).

CC(=Nc1c(C#N)cnn1-c1nn2c(c1Cl)CCCC2)c1cccnc1 [Compound 25] was tested, and the “herbicidal efficacy, Digitaria ciliaris” value (Digitaria ciliaris [7]) was 10 (100%) and the “herbicidal efficacy, Galinsoga parviflora” value (Galinsoga parviflora) was 10 (100%).

CCCCOC=Nc1c(C#N)cnn1-c1nn2c(c1Cl)CCCC2 [Compound 37] was tested, and the “herbicidal efficacy, Digitaria ciliaris” value (Digitaria ciliaris [7]) was 10 (100%) and the “herbicidal efficacy, Galinsoga parviflora” value (Galinsoga parviflora) was 10 (100%).

In the case of N#Cc1cnn(-c2nn3c(c2Cl)CCCC3)c1N=Cc1ccc[nH]1 [Compound 28], the “herbicidal efficacy, Digitaria ciliaris” value (Digitaria ciliaris [7]) is reported as 10 (100%) and the “herbicidal efficacy, Galinsoga parviflora” value (Galinsoga parviflora) is reported as 10 (100%).

For N#Cc1cnn(-c2nn3c(c2Cl)CCCC3)c1N=Cc1ccccc1OC(F)F [Compound 12], the “herbicidal efficacy, Digitaria ciliaris” value (Digitaria ciliaris [7]) was 10 (100%) and the “herbicidal efficacy, Galinsoga parviflora” value (Galinsoga parviflora) was 10 (100%).
